# Laboratory results reported in patent publication US9937261B2 (LIPOMEDIX PHARMACEUTICALS LTD., priority 2014, dated 2018).
# System: human cervical carcinoma (CaSki) tumor
# Test: Anti-tumor effect of prodrug and radiation therapy, CaSki tumor-bearing mice (Example 2)
# Details: 5 Gy irradiation in three fractions plus i.v. drug (prodrug 30 mg/kg, free mitomycin C 3.3 mg/kg), 21 days, FIG. 1
# Protocol: Tumor volume was measured for 21 days and the change in tumor volume (ratio of tumor volume at day zero to tumor volume at indicated day post injection) as a function of days post injection of the chemotherapeutic agent was measured.
# Cells from a human cervical carcinoma cell line, CaSki, were injected subcutaneously (1 million cells in 200 μL 1:1 RPMI and matrigel) into the left flank of 8 week old female Nu mice. Two weeks after inoculation, mice were treated three times with 5 Gy irradiation. […] Tumor volume was measured for 21 days in all test mice.
compound,measurement,value
"CO[C@@]12[C@H](COC(N)=O)C3=C(C(=O)C(C)=C(N)C3=O)N1C[C@@H]1N[C@@H]12 [free mitomycin C, mitomycin C]",tumor growth (change in tumor volume),little or no tumor growth
